This test deals with T1, full-length human PKCι (Homo sapiens, UniProt P41743).
T1 construct: Recombinant, full-length human PKCι expressed in Sf21 insect cells is also commercially available; purchased; host or cells: Sf21 insect cells
T1 sequence (P41743 1-596): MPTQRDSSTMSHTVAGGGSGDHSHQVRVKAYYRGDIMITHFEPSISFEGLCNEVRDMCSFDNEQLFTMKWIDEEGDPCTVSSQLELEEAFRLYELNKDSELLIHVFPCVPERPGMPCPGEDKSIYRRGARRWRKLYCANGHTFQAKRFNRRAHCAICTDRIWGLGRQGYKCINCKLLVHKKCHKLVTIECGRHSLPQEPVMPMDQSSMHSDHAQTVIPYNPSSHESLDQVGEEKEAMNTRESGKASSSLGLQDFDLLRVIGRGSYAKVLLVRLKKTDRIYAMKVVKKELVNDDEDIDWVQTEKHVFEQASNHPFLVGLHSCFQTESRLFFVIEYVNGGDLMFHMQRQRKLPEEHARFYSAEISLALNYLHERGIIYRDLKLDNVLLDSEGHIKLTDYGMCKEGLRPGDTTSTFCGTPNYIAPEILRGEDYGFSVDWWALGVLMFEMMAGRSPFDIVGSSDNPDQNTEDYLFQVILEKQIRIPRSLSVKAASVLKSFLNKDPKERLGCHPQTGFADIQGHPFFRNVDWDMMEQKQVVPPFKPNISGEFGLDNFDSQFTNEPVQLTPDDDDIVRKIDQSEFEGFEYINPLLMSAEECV
The test can be described thus: PKCι IC50 IMAP assay, full-length PKCι at 150 μM ATP. The class given is biochemical. The settings on record: read-out: IC50 in IMAP assay against full length PKCi at 150 μM ATP. Put shortly:
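Compounds in 4% final DMSO are mixed with Sf21-derived full-length human PKCι (typically 15 pM) and 100 nM FAM-labelled pseudosubstrate peptide, then started with 150 μM ATP. Reaction runs 60 min at room temperature, is quenched with IMAP development reagent for 2 h, and fluorescence polarisation is measured to derive IC50.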

Bounds are passed on as bounds.

For the compound `N[C@H](CNc1nc(-c2ccncc2)nc2cnc(Cl)cc12)Cc1ccccc1` [Example 12, N-[(2S)-2-amino-3-phenylpropyl]-6-chloro-2-(pyridin-4-yl)pyrido[3,4-d]-pyrimidin-4-amine], the IC50 (commonly the point on the concentration scale where inhibition reaches its midpoint) was less than 100 nM. The figure for `FC(F)(F)c1cc2c(-c3nc(NC4CCNCC4(F)F)c4c(C5CC5)cncc4n3)ccnc2[nH]1` (stereo not drawn) [Example 2155, [5-Cyclopropyl-2-(2-trifluoromethyl-1H-pyrrolo[2,3-b]pyridin-4-yl)-pyrido[3,4-d]pyrimidin-4-yl]-(3,3-difluoro-piperidin-4-yl)-amine] is 100 to 1000 nM; for `Fc1cc(F)c(Nc2cc(-c3nc(N4CCNCC4)c4c(C(F)(F)F)cncc4n3)ccn2)nc1F` [Example 2195, [4-(4-Piperazin-1-yl-5-trifluoromethyl-pyrido[3,4-d]pyrimidin-2-yl)-pyridin-2-yl]-(3,5,6-trifluoro-pyridin-2-yl)-amine] it is less than 100 nM; for `Fc1cc(F)c(-n2cc(Nc3cc(-c4nc(N5CCNCC5)c5c(C6CC6)cncc5n4)ccn3)cn2)c(F)c1` [Example 820, [4-(5-Cyclopropyl-4-piperazin-1-yl-pyrido[3,4-d]pyrimidin-2-yl)-pyridin-2-yl]-[1-(2,4,6-trifluoro-phenyl)-1H-pyrazol-4-yl]-amine] it is less than 100 nM.

Take `CC(C)c1cccc(Nc2cc(-c3nc(N4CCNCC4)c4c(C5CC5)cncc4n3)ccn2)c1` [Example 622, [4-(5-Cyclopropyl-4-piperazin-1-yl-pyrido[3,4-d]pyrimidin-2-yl)-pyridin-2-yl]-(3-isopropyl-phenyl)-amine]: the IC50 was less than 100 nM. To `c1ccc2c(c1)CC[C@H]2Nc1cc(-c2nc(N3CCNCC3)c3c(C4CC4)cncc3n2)ccn1` [Example 2098, [4-(5-Cyclopropyl-4-piperazin-1-yl-pyrido[3,4-d]pyrimidin-2-yl)-pyridin-2-yl]-(R)-indan-1-yl-amine] belongs less than 100 nM; to `Fc1cnc(Nc2cc(-c3nc(NC4CCOCC4)c4c(C5CC5)cncc4n3)ccn2)c(F)c1` [Example 2168, {5-Cyclopropyl-2-[2-(3,5-difluoro-pyridin-2-ylamino)-pyridin-4-yl]-pyrido[3,4-d]pyrimidin-4-yl}-(tetrahydro-pyran-4-yl)-amine], 10000 to 40000 nM; to `Fc1ccnc(Nc2cc(-c3nc(N4CCNCC4)c4c(C5CCC5)cncc4n3)ccn2)c1` [Example 785, [4-(5-Cyclobutyl-4-piperazin-1-yl-pyrido[3,4-d]pyrimidin-2-yl)-pyridin-2-yl]-(4-fluoro-pyridin-2-yl)-amine], less than 100 nM. The figure for `CC(C)(C)C(=O)N1CCC(Nc2cc(-c3nc(N4CCNCC4)c4c(C5CC5)cncc4n3)ccn2)CC1` [Example 813, 1-{4-[4-(5-Cyclopropyl-4-piperazin-1-yl-pyrido[3,4-d]pyrimidin-2-yl)-pyridin-2-ylamino]-piperidin-1-yl}-2,2-dimethyl-propan-1-one] is less than 100 nM; for `COc1cncc2nc(-c3ccnc(Nc4ccc(CC(N)=O)cc4)c3)nc(N[C@@H]3CCNC3)c12` [Example 326, 2-(4-{4-[5-Methoxy-4-((R)-pyrrolidin-3-ylamino)-pyrido[3,4-d]pyrimidin-2-yl]-pyridin-2-ylamino}-phenyl)-acetamide] it is 100 to 1000 nM; for `CC1(C)CN(c2nc(-c3ccnc4[nH]c(C(F)(F)F)cc34)nc3cncc(C4CC4)c23)CCN1` [Example 1251, 5-Cyclopropyl-4-(3,3-dimethyl-piperazin-1-yl)-2-(2-trifluoromethyl-1H-pyrrolo[2,3-b]pyridin-4-yl)-pyrido[3,4-d]pyrimidine] it is less than 100 nM. Consider `N#Cc1ccnc(Nc2cc(-c3nc(N4CCNCC4)c4ccncc4n3)ccn2)c1` [Example 342, 2-[4-(4-piperazin-1-yl-pyrido[3,4-d]pyrimidin-2-yl)-pyridin-2-ylamino]-isonicotinonitrile], for which the IC50 is 100 to 1000 nM.

The values above are taken from patent US9914730B2, “Azaquinazoline inhibitors of Atypical protein Kinase C” (Ignyta, Inc., priority 2012, dated 2018).
